Experimental data as given in US10329542B2, “HBV RNAse H purification and enzyme inhibitors” (Saint Louis University, priority 2012, dated 2019).
Like-named read-outs stand apart in the source and are kept apart here.

Key:
HBV genotype C RNAseH = experiment: Oligonucleotide-directed RNAseH cleavage assay, HBV genotype C; assay type: biochemical, Hepatitis B virus; conditions: class by concentration giving inhibition (10, 20, 60 μM)
Protocol: (§1) For the oligonucleotide-directed RNAseH cleavage assay (Gong et al., 2001), 6 μl protein extract (typical protein concentration 2.8 mg/ml) was mixed with 0.5 μg internally ^32P-labeled DRF+ RNA (nucleotides 2401-2605 of the duck HBV genome plus 60 nucleotides of flanking sequences from pBluescript) and 3 μg oligonucleotide D2507- or its corresponding negative control D2526+ on ice in 20 μl under the conditions in Table 1. Some reactions in FIG. 5 employed oligonucleotide D2543M-Sal or its D2453+ negative control as indicated. The reactions were incubated at 42° C. for 90 min. and terminated by addition of Laemmli protein loading buffer and boiling. The samples were resolved by 12% SDS-PAGE, the gels were stained with Coomassie blue to monitor protein loading, and labeled RNA was detected by autoradiography. Candidate inhibitors were dissolved in DMSO and added at the indicated concentrations during assembly of the reactions. Control reactions lacking the compounds contained DMSO as a vehicle control. The RNAseH autoradiograms were scanned and quantified with ImageJ. The oligonucleotides were: D2526+([…]; SEQ ID NO:8), D2507-([…]; SEQ ID NO:9), D2453+([…]; SEQ ID NO:10), and D2543M-Sal ([…]; SEQ ID NO:11).
Incremental improvements were developed in extraction of the HBV RNAseH from the bacterial cell pellets since the data were generated for Examples 1 and 2. Key among these was shifting from using a cup sonicator to a probe sonicator and reducing the duration of the sonication period from 3×60 second bursts to 3×20 second bursts. When the […] genotype C clone that had inconsistent activity under the old extraction conditions (FIG. 6C) was isolated under these conditions, it became consistently and robustly active (FIG. 16).

[1] = target: T1, HBV genotype D RNAseH (HRHPL) (Hepatitis B virus genotype D subtype ayw, UniProt P03156, INS679M); experiment: Oligonucleotide-directed RNAseH cleavage assay, HBV genotype D; assay type: biochemical; conditions: class by concentration giving inhibition (10, 20, 60 μM)
T1 construct: HRHPL contains HBV genotype D (Genbank V01460) polymerase residues 684-845; made in house; host or cells: E. coli BL21 codon+
Protocol: For the oligonucleotide-directed RNAseH cleavage assay (Gong et al., 2001), 6 μl protein extract (typical protein concentration 2.8 mg/ml) was mixed with 0.5 μg internally ^32P-labeled DRF+ RNA (nucleotides 2401-2605 of the duck HBV genome plus 60 nucleotides of flanking sequences from pBluescript) and 3 μg oligonucleotide D2507- or its corresponding negative control D2526+ on ice in 20 μl under the conditions in Table 1. Some reactions in FIG. 5 employed oligonucleotide D2543M-Sal or its D2453+ negative control as indicated. The reactions were incubated at 42° C. for 90 min. and terminated by addition of Laemmli protein loading buffer and boiling. The samples were resolved by 12% SDS-PAGE, the gels were stained with Coomassie blue to monitor protein loading, and labeled RNA was detected by autoradiography. Candidate inhibitors were dissolved in DMSO and added at the indicated concentrations during assembly of the reactions. Control reactions lacking the compounds contained DMSO as a vehicle control. The RNAseH autoradiograms were scanned and quantified with ImageJ.
(§2) Oligonucleotide-directed RNAseH cleavage assays (Gong et al., 2001) were performed as described (Tavis et al., 2013). Briefly, HBV RNAseH extracts were mixed with a 264 nt-long internally ^32P-labeled RNA plus an excess of a complementary DNA oligonucleotide or its inverse-complement as a negative control in a final concentration of 65 mM Tris pH 8.0, 190 mM NaCl, 5 mM MgCl2, 5 mM dTT, 0.05% NP40, and 6% glycerol. βTJ was dissolved in DMSO and added at the indicated concentrations; the final concentration of DMSO in all reactions was 1%. The reactions were incubated at 42° C. for 90 min. and terminated by addition of Laemmli protein electrophoresis buffer. The samples were resolved by SDS-PAGE, labeled RNA was detected by autoradiography, the autoradiograms were scanned, and the RNA cleavage products were quantified with ImageJ (National Institutes of Health). IC50 values were calculated by non-linear regression using GraphPad Prism (GraphPad Software, Inc.).

rat hepatocytes = conditions: cited from earlier work
HBV [2] = experiment: Quantitative PCR screen of HBV plus-polarity DNA accumulation; assay type: cell-based, Hepatitis B virus; conditions: 60, 20, or 6.7 μM; DNA isolated day 3
Protocol: This assay was employed to screen 7 compounds for their ability to suppress HBV replication (FIG. 17). […] Fresh medium containing compound was provided on days 1 and 2, and capsid-associated HBV DNAs were isolated on day 3. HBV plus-strand DNAs were measured using the cross-gap TaqMan PCR assay.
Plus-polarity preferential quantitative TaqMan PCR for the HBV DNA was conducted employing forward primer […] […] PCR was conducted on purified HBV capsid-derived nucleic acids for 40 cycles of 95° C. for 15 sec. and 65° C. for 1 min. employing the TaqMan universal PCR master mix (Applied Biosystems). Results were standardized against serial dilutions of cloned HBV DNA. The EC50 was estimated by linear regression of the real-time PCR data.

human RNAseH1 = target: T2, human RNAseH1 (Homo sapiens, UniProt O60930); experiment: Oligonucleotide-directed RNAseH assay, recombinant human RNAseH1; assay type: biochemical; conditions: class by concentration giving inhibition (10, 20, 60 μM)
T2 construct: hexahistidine (N); made in house; host or cells: E. coli BL21 codon+
T2 sequence (O60930 1-286): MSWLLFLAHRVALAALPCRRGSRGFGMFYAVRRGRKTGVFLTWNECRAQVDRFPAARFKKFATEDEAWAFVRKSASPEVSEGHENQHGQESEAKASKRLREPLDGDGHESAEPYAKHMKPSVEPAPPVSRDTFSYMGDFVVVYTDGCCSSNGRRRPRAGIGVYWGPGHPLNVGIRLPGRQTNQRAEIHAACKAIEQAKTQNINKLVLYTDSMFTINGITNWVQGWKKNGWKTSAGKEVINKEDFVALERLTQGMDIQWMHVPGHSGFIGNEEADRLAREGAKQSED
Protocol: as §1
Therefore, the inventors cloned the human RNAseH1 with an N-terminal hexahistidine tag, expressed it in E. coli, and purified the protein by nickel affinity chromatography. […] This enzyme was active in the oligonucleotide-directed and fluorescent RNAseH assays (FIG. 10B and data not shown). To determine how inhibition of human RNAseH1 compared to inhibition of the HBV RNAseH, the inventor titrated the RNAaseH1 enzyme to yield similar levels of activity as the HBV enzyme, and then the inventor directly compared the ability of compounds #8-12 to inhibit human RNAseH1 and HRHPL at 10 μM. […] Therefore, it is possible to inhibit the HBV RNAseH without inhibiting human RNAseH1.
as §2

HBV [3] = experiment: HBV genomic replication assays (Table 2); assay type: cell-based, Hepatitis B virus; conditions: class by active concentration
Protocol: Huh7 cells were maintained in Dulbecco's modified Eagle's medium with 10% fetal bovine serum at 37° C. in 5% CO2. Cells were seeded into 60 mm dishes and transfected at 70% confluency with 2.6 μg of plasmids using TransIT-LT1 (Mirus, Inc.). Test compounds were added the morning following transfection at 10 or 50 μM, and fresh medium containing the compounds was provided every 1-2 days. Four or five days post-transfection HBV cores were isolated by lysis of the cells in 10 mM Tris pH 7.5, 1 mM EDTA, 0.25% NP40, 50 mM NaCl, and 8% sucrose followed by sedimentation through a 30% sucrose cushion as described (Travis, et al., 1998). Viral DNAs were isolated from cytoplasmic core particle preparations by proteinase K digestion followed by phenol/chloroform extraction as described (Gong et al., 2001). Duplicate aliquots of the nucleic acids were treated with 2 U E. coli DNAse-free RNAseH (Invitrogen) at 37° C. for 30 min. or were mock treated. The nucleic acid samples were resolved by electrophoresis on 1.2% agarose gels and detected by Southern blotting with ^32P-labeled HBV DNA as a probe. […]

HIV-1 RNAseH = HIV-1 RNAseH (Human immunodeficiency virus type 1 group M subtype B, UniProt P04585); conditions: read-out: IC50 against the HIV RNAseH; cited from earlier work
[4] = rat hepatocytes, Nakagawa and Tayama, 1998

Compound | Activity vs. HBV Biochemical vs. gtC (HBV genotype C RNAseH) | Activity vs. HBV Biochemical vs. gtD [1] | Activity vs. human RNAseH1 (human RNAseH1) | also measured
Cc1cc(C)c(C#N)c(=O)[nH]1 [Compound 20] | − (− no inhibition at 60 μM) | − (− no inhibition at 60 μM) | – | –
O=c1cccccc1O [Compound 53, Tropolone] | – | ++ (++ inhibition at 20 μM) | − (− no inhibition at 60 μM) | Mitochondrial toxicity (rat hepatocytes): mitochondrial toxicity has been reported; Suppression of HBV plus-polarity DNA accumulation (HBV [2]): inhibited accumulation of HBV plus-polarity DNA to lesser extents; Activity vs. HBV Genomic Replication (HBV [3]): − (− no activity at 60 μM)
O=c1ccc2ccccc2n1O [Compound 43] | + (+ inhibition at 60 μM) | − (− no inhibition at 60 μM) | − (− no inhibition at 60 μM) | –
CC(C)c1cccc(O)c(=O)c1 [Compound 47, beta-thujaplicin] | − (− no inhibition at 60 μM) | +++ (+++ inhibition at 10 μM) | − (− no inhibition at 60 μM) | Mitochondrial toxicity (rat hepatocytes; [4]): mitochondrial toxicity has been reported; Suppression of HBV plus-polarity DNA accumulation (HBV [2]): did not suppress HBV plus-polarity DNA accumulation; Activity vs. HBV Genomic Replication (HBV [3]): − (− no activity at 60 μM)
CC(C)n1cc(C(=O)O)c(=O)c2ccccc21 [Compound 64] | − (− no inhibition at 60 μM) | + (+ inhibition at 60 μM) | – | –
CC(C)c1ccc(O)c(=O)cc1 [Compound 48] | – | – | – | Suppression of HBV plus-polarity DNA accumulation (HBV [2]): did not suppress HBV plus-polarity DNA accumulation
CCn1cc(C(=O)O)c(=O)c2cc(F)c(N3CCNCC3)nc21 [Compound 71, Enoxacin, reference compound] | − (− no inhibition at 60 μM) | − (− no inhibition at 60 μM) | – | –
C[C@@H]1CCO[C@H]2Cn3cc(C(=O)NCc4ccc(F)cc4F)c(=O)c(O)c3C(=O)N12 [Compound 73, Dolutegravir, reference compound] | − (− no inhibition at 60 μM) | + (+ inhibition at 60 μM) | – | –
CC(C)c1ccccc(=O)c1O [α-thuaplicin, reference compound] | – | – | – | IC50 (HIV-1 RNAseH): 50 µM
CCn1cc(C(=O)O)c(=O)c2cc(Cc3ccccc3)c(OCCOC)cc21 [Compound 69] | + (+ inhibition at 60 μM) | ++ (++ inhibition at 20 μM) | – | –
O=C1c2cccc3cccc(c23)C(=O)N1O [Compound 45] | + (+ inhibition at 60 μM) | − (− no inhibition at 60 μM) | − (− no inhibition at 60 μM) | Activity vs. HBV Genomic Replication (HBV [3]): − (− no activity at 60 μM)
Cn1c(N2CCCCS2(=O)=O)nc(C(=O)NCc2ccc(F)cc2)c(O)c1=O [Compound 72, reference compound] | + (+ inhibition at 60 μM) | ++ (++ inhibition at 20 μM) | – | –
Manicol [Compound 56] | +++ (+++ inhibition at 10 μM) | +++ (+++ inhibition at 10 μM) | − (− no inhibition at 60 μM) | IC50 (HIV-1 RNAseH): 60 µM; Suppression of HBV plus-polarity DNA accumulation (HBV [2]): inhibited accumulation of HBV plus-polarity DNA to lesser extents; Activity vs. HBV Genomic Replication (HBV [3]): + (+, activity detectable at >10 μM)
O=c1cccccc1 [tropone, reference compound] | – | – | – | Mitochondrial toxicity (rat hepatocytes; [4]): mitochondrial toxicity has been reported
